Data as given in PMC7403315, “Cyclic peptide FXII inhibitor provides safe anticoagulation in a thrombosis model and in artificial lungs” (Nature Communications, 2020).
Values joined by “and” are separate entries in the source; they are usually repeats but may differ in a detail not shown here. Equal entries are not always repeated. Where two headings read alike, the source gives them in different places. Values belong to the molecule of their own block, whether it stands above or below them. Residues, ends and D or L forms follow the SMILES beside them.

Biological target: T1, human β-FXIIa (Homo sapiens, UniProt P00748)
T1 construct: human β-FXIIa (Molecular Innovations cat #); purchased Molecular Innovations HFXIIAB; host or cells: human blood
Experiment: FXIIa protease inhibition assay with fluorogenic substrate Boc-Gln-Gly-Arg-AMC
Assay type: biochemical
Procedure: In order to test the inhibitory activity of peptides without prior purification, we developed the following method. […] After solid-phase peptide synthesis, cleavage, and ether precipitation, the peptides were chemically cyclized and their Ki values were determined in a FXIIa activity assay using a fluorogenic substrate.
Protease inhibition assays
The inhibitory activity of peptides was determined by measuring the residual protease activity with a fluorogenic substrate. The assay was performed in buffer containing 10 mM Tris-Cl, pH […]
1% (v/v) DMSO in a volume of 150 µl. FXIIa activity was measured with the fluorogenic substrate Boc-Gln-Gly-Arg-AMC (Bachem) at a final concentration of 50 µM. Mouse α-FXIIa (Molecular Innovations cat # MFXIIA) and human β-FXIIa (Molecular Innovations cat # HFXIIAB) were used at final concentrations of 0.4 nM. The reaction was pipetted as follows: 50 µl of bicyclic peptide in assay buffer were added to 50 µl of FXIIa in assay buffer and incubated for 10 minutes at 25°C before 50 µl of 150 µM fluorogenic substrate in assay buffer were added to measure the residual protease activity with an Infinite M200Pro fluorescence plate reader (excitation at 368 nm, emission at 467 nm; Tecan) for a period of 30 minutes with a read every minute at 25°C. The Tecan software i-control (version 1.1) was used for data analysis. Stock solutions of 1 mM bicyclic peptide were prepared by either dissolving the unpurified cyclization reaction with water or by dissolving purified and lyophilized peptide in water. The bicyclic peptides were serially diluted two-fold using assay buffer. Sigmoidal curves were fitted to the data using the following dose response equation (1), wherein x = peptide concentration, y = % protease activity, and p = Hill slope. IC50 values were derived from the fitted curve.
The inhibition constants (Ki) were calculated according to the equation of Cheng and Prusoff, Ki = IC50/(1+([S]0/Km), wherein IC50 is the functional strength of the inhibitor, [S]0 is the total substrate concentration, and Km is the Michaelis-Menten constant. […]
the substrate Boc-Gln-Gly-Arg-AMC. […]

[1] = purified peptide without coumarin label, read-out: Ki human FXIIa

T1 sequence (P00748 373-615 limits assumed, other chains not shown): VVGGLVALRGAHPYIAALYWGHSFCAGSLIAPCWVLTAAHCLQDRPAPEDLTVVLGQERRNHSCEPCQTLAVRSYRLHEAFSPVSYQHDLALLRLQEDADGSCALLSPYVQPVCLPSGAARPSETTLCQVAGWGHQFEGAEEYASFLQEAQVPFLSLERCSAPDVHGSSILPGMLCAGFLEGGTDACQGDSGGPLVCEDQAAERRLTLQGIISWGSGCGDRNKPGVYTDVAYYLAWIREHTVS

Residual activity of human FXIIa (inhibitor 0.0976562 nM, 97.66 pM): 91.4189% | remaining activity at 97.66 pM (inhibitor 0.0976562 nM, read-out: Residual activity of human FXIIa): 93.2% | Residual activity of human FXIIa (inhibitor 0.195312 nM, 0.000195312 µM): 81.1824% | remaining activity at 0.000195312 µM (inhibitor 0.195312 nM, read-out: Residual activity of human FXIIa): 90.3% | Residual activity of human FXIIa (inhibitor 0.390625 nM, 0.000390625 µM): 72.286% | remaining activity at 0.000390625 µM (inhibitor 0.390625 nM, read-out: Residual activity of human FXIIa): 82.1% | Residual activity of human FXIIa (inhibitor 0.78125 nM, 0.00078125 µM): 58.8964% | remaining activity at 0.00078125 µM (inhibitor 0.78125 nM, read-out: Residual activity of human FXIIa): 69.4% | Residual activity of human FXIIa (inhibitor 1.5625 nM, 0.0015625 µM): 43.9302% | remaining activity at 0.0015625 µM (inhibitor 1.5625 nM, read-out: Residual activity of human FXIIa): 53.9% | Residual activity of human FXIIa (inhibitor 3.125 nM, 0.003125 µM): 29.5158% and 36.4925% | remaining activity at 0.003125 µM (inhibitor 3.125 nM, read-out: Residual activity of human FXIIa): 34.3% | Residual activity of human FXIIa (inhibitor 6.25 nM, 0.00625 µM): 18.0743% and 21.4703% | remaining activity at 0.00625 µM (inhibitor 6.25 nM, read-out: Residual activity of human FXIIa): 20.1% | Residual activity of human FXIIa (inhibitor 12.5 nM, 0.0125 µM): 10.9718% and 11.488% | remaining activity at 0.0125 µM (inhibitor 12.5 nM, read-out: Residual activity of human FXIIa): 10.6% | remaining activity at […] (inhibitor 25 nM, read-out: Residual activity of human FXIIa): 4.82% | Residual activity of human FXIIa (inhibitor 50 nM, 0.05 µM): 4.39% and 3.29% | remaining activity at 0.05 µM (inhibitor 50 nM, read-out: Residual activity of human FXIIa): 2.6% | Residual activity of human FXIIa (inhibitor 100 nM, 0.1 µM): 1.025% and 3.134% and 1.703% | remaining activity at 0.2 µM (inhibitor 200 nM, read-out: Residual activity of human FXIIa): 0.731% | remaining activity at 0.4 µM (inhibitor 400 nM, read-out: Residual activity of human FXIIa): 0.3% | Ki [1]: 1.5 ± 0.1 nM
SMILES: CC(C)C[C@@H]1NC(=O)[C@H](CCC(N)=O)NC(=O)[C@H](CCCNC(=N)N)NC(=O)[C@@H]2CSCCC(=O)N3CN(CN(C3)C(=O)CCSC[C@H](NC(=O)[C@@H](N)CCCNC(=N)N)C(=O)N[C@@H](Cc3ccccc3)C(=O)N[C@@H](CCCNC(=N)N)C(=O)N[C@@H](CC(C)C)C(=O)N3CCC[C@H]3C(=O)N2)C(=O)CCSC[C@@H](C(=O)N[C@@H](CCCNC(=N)N)C(N)=O)NC(=O)C[C@H](CCCNC(=N)N)NC1=O [FXII700]

Residual activity of human FXIIa (inhibitor 0.12207 nM, 0.00012207 µM): 86.6295% and 91.1755% | remaining activity at 0.00012207 µM (inhibitor 0.12207 nM, read-out: Residual activity of human FXIIa): 94.2% | Residual activity of human FXIIa (inhibitor 0.244141 nM, 0.000244141 µM): 82.4999% and 82.653% | remaining activity at 0.000244141 µM (inhibitor 0.244141 nM, read-out: Residual activity of human FXIIa): 87% | Residual activity of human FXIIa (inhibitor 0.488281 nM, 0.000488281 µM): 69.0437% and 70.79% | remaining activity at 0.000488281 µM (inhibitor 0.488281 nM, read-out: Residual activity of human FXIIa): 70.3% | Residual activity of human FXIIa (inhibitor 1.95312 nM, 0.00195312 µM): 33.1082% and 35.3323% | remaining activity at 0.00195312 µM (inhibitor 1.95312 nM, read-out: Residual activity of human FXIIa): 31.8% | Residual activity of human FXIIa (inhibitor 3.90625 nM, 0.00390625 µM): 19.4631% and 21.6747% | remaining activity at 0.00390625 µM (inhibitor 3.90625 nM, read-out: Residual activity of human FXIIa): 16.9% | Residual activity of human FXIIa (inhibitor 7.8125 nM, 0.0078125 µM): 10.6116% and 10.9279% | remaining activity at 0.0078125 µM (inhibitor 7.8125 nM, read-out: Residual activity of human FXIIa): 9.32% | Residual activity of human FXIIa (inhibitor 15.625 nM, 0.015625 µM): 6.273% and 6.117% | remaining activity at 0.015625 µM (inhibitor 15.625 nM, read-out: Residual activity of human FXIIa): 6.19% | Residual activity of human FXIIa (inhibitor 31.25 nM, 0.03125 µM): 3.754% and 3.106% | remaining activity at 0.03125 µM (inhibitor 31.25 nM, read-out: Residual activity of human FXIIa): 2.96% | Residual activity of human FXIIa (inhibitor 62.5 nM, 0.0625 µM): 2.455% and 1.836% | remaining activity at 0.0625 µM (inhibitor 62.5 nM, read-out: Residual activity of human FXIIa): 1.51% | Residual activity of human FXIIa (inhibitor 125 nM, 0.125 µM): 1.461% and 1.1009% | remaining activity at 0.125 µM (inhibitor 125 nM, read-out: Residual activity of human FXIIa): 1.19% | Residual activity of human FXIIa (inhibitor 0.976562 / 0.976563 nM, 0.000976563 µM): 50.5477% and 54.5303% | remaining activity at 0.000976563 µM (inhibitor 0.976562 / 0.976563 nM, read-out: Residual activity of human FXIIa): 50.5% | Ki [1]: 0.84 ± 0.03 nM
SMILES: CC(C)C[C@@H]1NC(=O)[C@H](CCC(N)=O)NC(=O)[C@H](CCCNC(=N)N)NC(=O)[C@@H]2CSCCC(=O)N3CN(CN(C3)C(=O)CCSC[C@H](NC(=O)[C@@H](N)CCCNC(=N)N)C(=O)N[C@@H](Cc3ccc(F)cc3)C(=O)N[C@@H](CCCNC(=N)N)C(=O)N[C@@H](CC(C)C)C(=O)N3CCC[C@H]3C(=O)N2)C(=O)CCSC[C@@H](C(=O)N[C@@H](CCCNC(=N)N)C(N)=O)NC(=O)[C@H](CCCNC(=N)N)NC1=O [FXII800]

Ki (negative control peptide, read-out: Ki FXIIa): 39000 ± 14000 nM
SMILES: CC(C)C[C@@H]1NC(=O)[C@H](CCC(N)=O)NC(=O)[C@H](Cc2c[nH]cn2)NC(=O)[C@@H]2CSCCC(=O)N3CN(CN(C3)C(=O)CCSC[C@H](NC(=O)[C@@H](CO)NC(=O)[C@H](N)CCCNC(=N)N)C(=O)N[C@@H](Cc3ccccc3)C(=O)N[C@@H](C)C(=O)N[C@@H](CC(C)C)C(=O)N3CCC[C@H]3C(=O)N2)C(=O)CCSC[C@@H](C(N)=O)NC(=O)[C@H](CCCNC(=N)N)NC1=O [FXII901] (HELM PEPTIDE1{[dR].[dS].C.F.A.L.P.C.H.Q.L.R.C.[am]}|CHEM1{[O=C(CC[*:1])N1CN(C(=O)CC[*:2])CN(C(=O)CC[*:3])C1]}$PEPTIDE1,CHEM1,3:R3-1:R1|PEPTIDE1,CHEM1,8:R3-1:R2|PEPTIDE1,CHEM1,13:R3-1:R3$$$V2.0)
